{"source": "paper PMC9729598", "about": "(Bioorganic Chemistry, 2022)", "system": "SARS-CoV-2 (wuhan-HU-1 variant)", "format": "cell-based"}
{"smiles": "C=C(C)[C@@H]1CC[C@]2(C(=O)O)CC[C@]3(C)[C@H](CC[C@@H]4[C@@]5(C)CC[C@H](O)C(C)(C)[C@@H]5CC[C@]43C)[C@@H]12", "note": "[BA, Betulinic acid]", "values": [{"measurement": "anti-SARS-CoV-2 activity", "result": "virtually inactive"}]}
